Laboratory results from patent US20170327455A1, “Omefibrates for Treating Dyslipidemia and Cardiovascular Disease” (Jiva Pharma, Inc., priority 2014, published 2017).
pEC50: −log10 of the molar value. Entries after “also recorded” stand apart in the source; their conditions may differ.

Experiments:
[1] = molecular target: T1, PPARα (Homo sapiens, UniProt Q07869); experiment: PPARα agonist assay: GAL4-PPAR ligand-binding domain luciferase reporter in live cells; format: cell-based; details: FIG. 1; for activation of PPARα transcriptional activity (normalized luciferase activity): GAL4-regulated luciferase reporter, live cells
T1 construct: expressed in transfected cells
T1 sequence (Q07869 239-466 limits assumed): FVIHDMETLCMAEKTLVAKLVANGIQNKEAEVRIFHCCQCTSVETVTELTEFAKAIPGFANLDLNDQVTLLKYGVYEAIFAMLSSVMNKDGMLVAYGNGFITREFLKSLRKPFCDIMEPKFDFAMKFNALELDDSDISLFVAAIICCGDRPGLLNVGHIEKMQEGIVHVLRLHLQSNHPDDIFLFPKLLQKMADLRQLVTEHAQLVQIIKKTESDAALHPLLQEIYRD
Protocol: The activity of JIVA-0018, JIVA-0019 and JIVA-0020 was determined in a PPARα-dependent transcription assay. This assay was carried out in live cells treated with these above compounds, and provides a direct measurement of a compound's ability to activate PPARα. This PPARα activity assay is a standard nuclear receptor ligand activity assay that utilizes the ligand-binding domain of the PPAR receptor fused to a heterologous GAL4 DNA binding domain. The transcriptional read-out is from a GAL4-regulated luciferase reporter. In this assay, compounds that activate the receptor cause an increase in luciferase activity measured in a luminometer.

[2] = molecular target: T2, PPARδ (Homo sapiens, UniProt Q03181); experiment: PPARδ Agonist Assay (luciferase reporter); format: cell-based; details: FIG. 2
T2 construct: expressed in transfected cells
T2 sequence (Q03181 211-439 limits assumed): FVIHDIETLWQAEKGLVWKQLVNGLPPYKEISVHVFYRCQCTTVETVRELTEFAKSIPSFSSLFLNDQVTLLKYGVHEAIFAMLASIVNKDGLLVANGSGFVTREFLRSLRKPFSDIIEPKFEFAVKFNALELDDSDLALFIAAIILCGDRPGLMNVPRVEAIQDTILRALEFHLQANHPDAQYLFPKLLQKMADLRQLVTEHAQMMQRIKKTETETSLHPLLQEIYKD

Compound	activation of PPARα transcriptional activity (normalized luciferase activity) [1]	activity on PPARδ (normalized luciferase activity) [2]	pEC50 ([1]; estimated from the data, read-out: EC50 for activation of PPARα)
CC/C=C\C/C=C\C/C=C\C/C=C\C/C=C\CCCCC(C)(C)C(=O)O [JIVA-0018, EPA Fibrate or EPA-Fibric Acid]	neither the EPA-fibrate, JIVA-0018 nor the DHA-fibrate, JIVA-0020 stimulated PPARα activity; also recorded: at the base line	at the base line	–
CC/C=C\C/C=C\C/C=C\CCCCCCCCC(C)(C)C(=O)O [JIVA-0019, ALA Fibrate]	strongly activated PPARα; also recorded: potent and selective activator of PPARα	at the base line	–
DHA Fibrate [JIVA-0020]	neither the EPA-fibrate, JIVA-0018 nor the DHA-fibrate, JIVA-0020 stimulated PPARα activity	–	< 4.70
